Experimental data reported in patent US10785978B2, “Control and repellency of biting flies, house flies, ticks, ants, fleas, biting midges, cockroaches, spiders and stink bugs” (priority 2012, dated 2020).
Several values for one entry are separate records, joined by “and”; a condition that tells them apart may be missing. Equal entries are not always repeated.

Tests used:
Format in all cases: in vivo
Cockroaches = experiment: Cockroach toxicity by forced exposure on treated filter paper; conditions: forced exposure 24 hours
Experimental: Additionally, toxicity was determined by forced exposure testing under the following protocol. Filter paper circles were treated with test compound. Cockroaches were released onto the treated circles and covered with inverted plastic cylinders placed over the paper discs. The cockroaches were left on the substrates for 24 hours and checked for mortality.

stable flies = experiment: Human forearm test against stable flies, time to first confirmed bite; conditions: average of two trials, maximum 8 hours
Experimental: Two insect repellents per day were tested by applying one on each arm of a human subject and inserting the arms into a cage containing 50 stable flies. The exposure period was five minutes at every 30 minute interval until the first time a confirmed bite was […] The stable flies were reared at ambient temperature, relative humidity and photoperiod. Groups of 50 flies were aspirated from the cage and released into 16 oz. cups with screened lids, which were used to release flies into the two test cages. […] Adjacent areas above and below the treated area were protected with elastic bandages held in place with Elastikon® surgical tape.
The application rate was between 0.65 ml and 1 ml/250 cm^2 for all repellents. The actual amount of repellent used was based upon the amount that provides thorough coverage of the 250 cm^2 treatment area. A repellent was applied using either a micropipette or a syringe minus the needle. The repellents were then evenly spread on the treatment area with a gloved finger. Each test subject's forearms were allowed to air dry for approximately 30 minutes prior to the first exposure. The study coordinator or technician assisted the test subjects in inserting their arms into the test cages, taking care not to rub them on the cloth sleeve. Both treated arms were inserted into a cage; there were two subjects (4 arms) per cage. The test subjects exposed their treated forearms to the flies in the test cages for 5 minutes. The subjects then removed their arms from the cages with assistance from the study coordinator or a technician. Exposures of each arm were repeated every 30 minutes until the repellent on that arm was determined to be no longer effective (‘breakdown’) or until 8 hours have elapsed, whichever occurs first.
Breakdown occurs when the first confirmed bite is noted. A confirmed bite occurs when a bite is followed by a second bite in the same exposure period or in the next succeeding exposure period. The second bite becomes the confirming bite and the breakdown time is taken as the time of the first bite. When a confirmed bite occurs, testing is discontinued on that arm. Results in Table 3 below are the average of two trials on two different test subjects. Compounds were diluted in isopropyl alcohol.

[1] = tested on: brown marmorated stink bugs (BMSB); experiment: Brown marmorated stink bug repellency, treated vs. untreated filter paper arena
Experimental: The two semi-circle filter papers were aligned together to completely cover the bottom of the test arena. Control arenas were also set up in a similar fashion except both were treated with acetone. Five replicates of 5 BMSB were then introduced into both the treated and control arenas. By releasing them in the center of the arena, the BMSB were presented with a choice of treated vs. untreated substrate (or untreated vs. untreated in the control arenas). The repellency of the BMSB was recorded at 24 hours post-treatment.

German cockroaches = experiment: German cockroach repellency, choice of food stations in arena; conditions: 50% in acetone; at 4 hours
Experimental: The efficacy of compounds of this invention to control or repel German cockroaches was illustrated using the following protocol. One food pellet each was placed on a paper square (station) treated with one of the repellent materials. Materials were diluted to 50% in acetone and a straight acetone station was also used. Both stations were placed on the same side of the arena. Cockroaches were starved for 2 days and then released into the arena. They were given a choice to feed on either food pellet. A control arena with an acetone treated station and an untreated station was also used. The distribution of cockroaches within the arena was recorded at 30 minute intervals over 4 hours. Repellency at 4 hours was calculated by the number of cockroaches on the untreated station vs. the total number of cockroaches on the stations.

house flies = experiment: House fly repellency on treated filter paper food trays in cages; conditions: over 6 hours
Experimental: The bottom of each cage was lined with brown craft paper and divided into 4 equal quadrants. Each quadrant housed a makeshift filter paper food tray. Two of the four filter papers were treated with repellent and two treated with isopropanol. Control cages contained filter papers that were treated with 4 filter papers of isopropanol only. The number of flies resting on filter paper per quadrant was recorded every 30 minutes for a total of 6 hours. Cages were rotated to eliminate positional bias. […] Each of the test samples were diluted in isopropyl alcohol.

[2] = tested on: Brown Dog Ticks, Rhipicephalus sanguineus; experiment: Brown Dog tick repellency on vertical filter paper strips; conditions: 7.5% in isopropyl alcohol
Experimental: Control against Brown Dog ticks was determined in the following protocol. Strips of filter paper, 1″ by 3″, were placed on a sheet of aluminum foil treated with 1 ml each of the test samples and allowed to dry. The end of each treated strip was stapled to an untreated filter paper strip of the same dimensions. The stapled strips were suspended in a vertical position above a tray, with the treated half attached to a horizontal glass rod by a metal clip. The untreated half was lowered when the strip is vertically positioned. Brown Dog Ticks, Rhipicephalus sanguineus, mixed sexes, were purchased from a supplier. Five replicates of five ticks for each treatment regimen plus five additional replicates for the control were employed. Ticks shipped to the test site were given at least one day to acclimate to “shipping stress” before they are used for testing. Those tick specimens which appeared sluggish or moribund were not used. Suitable ticks were removed from their containers and allowed to quest on the free end of the test strip. Once present on the strip they were watched as they crawled up the strip until they contacted the treated paper. If the tick, once in contact with the treated zone, either turned around, stopped without proceeding further, or dropped off, the tick is classified as repelled. If it continued to crawl onto the treated strip, even after it stopped briefly, that tick was classified as not repelled. A maximum observation time of 1 minute per replicate was allowed for ticks to respond after reaching the treated area, but during the test, if more time was needed, the maximum observation time may have been adjusted at the discretion of the study coordinator. At the end of the observation time, the number of ticks repelled was recorded. Tick behavior was recorded when applicable, such as whether increased number of affected or repelled ticks occurred in successive replicates over time. After the completion of each treatment parameter, the testing chamber was ventilated for five minutes by turning on the exhaust fan and opening the door leading into the chamber. Ticks were used only once. Average number of ticks displaying each behavior category were calculated and compared to the control replicates.

Black Widow spiders = experiment: Black Widow spider choice test in half-treated tube shelters; conditions: 5% in isopropanol; location after 24 hours
Experimental: Control against Black Widow spiders was determined using the following protocol. One test container containing two card stock tube shelters, one half treated with a test sample and the other half treated with isopropanol was prepared. A spider was introduced in the center of the tube. The spider was then given a choice to move to one end of the shelters. The following day, its location is recorded and compared to the results from a shelter containing untreated half-shelters.
On the day of the test one of the two shelters was sprayed with the test sample solution using a 2 oz pump spray bottle. Only the surfaces that the spider will most likely contact were treated. Therefore, only the inside of one of the shelter tubes, including the end disc (spiders will not be able to access the outside part of the shelter) were sprayed. The total amount of product was weighed and recorded. The treated surface was allowed to dry for a minimum of ½ hour, or until solvent could not be detected by smell. At this time the shelter tubes were assembled.
Card stock paper tube shelters were constructed from 2 half-letter sized sheets (5½″×8½″) of paper, rolled and taped together to form a short tube. One end of each was covered with a circle of card stock paper, while the other end was later taped to the open end of the other half sheet, forming one long tube. […] The solvent-treated half was labeled with a “C” on the inner and outer walls with a pencil or a pen with solvent resistant ink. Prior to forming the final tube shelter, a semi-circular hole was cut into one of the margins of each sheet such that, once the two tubes are taped together, the holes correspond to the top and at the junction of the tubes for introduction of the spiders.
Twenty-five arenas were prepared in this manner for each test sample. There were five replicates of five spiders. Twenty-five additional control arenas were also prepared. They were prepared the same way, except that areas to be sprayed were sprayed with isopropanol only.
Replicates of five spiders were selected for each test formulation and for the control. The specimens were visually examined for overall physical condition. […] The spiders were transferred directly into the holding vials using flexible forceps or with a little coaxing with an artist brush. Because of their cannibalistic tendencies, each vial contained only one spider. There they were held until the time for testing.
At the test start the spiders were placed directly in the middle, through the opening at the top of the shelter tube, and the opening covered, with only one spider per arena. […] They were left alone for 24 hours, after which time their location within the arena was recorded. Spiders present inside the shelter treated with the test repellent were considered tolerant.

Brown Dog Ticks = experiment: Second repellent assay against Brown Dog Ticks; conditions: 15% in isopropyl alcohol
Experimental: Also, a second repellent assay was used to evaluate six test samples against Brown Dog Ticks. Five replicates of five ticks were given the opportunity to quest onto a vertical strip of untreated filter paper and then allowed to move upward toward a second vertical strip of filter paper treated with one of the six candidate repellents or DEET®. In the control situation, the second strip was treated with isopropanol. They were then observed for directional or behavioral changes caused in response to contact with the repellent. Ticks were recorded as either repelled or not repelled. Compounds were diluted in isopropyl alcohol. The percentages of ticks repelled are shown below in Table 6.

[3] = 30% in isopropyl alcohol on forearm

SMILES | 100% bite protection for (stable flies; [3]) [h] | % Repellency at 24 hours ([1]; 2.5% in isopropyl alcohol) [%] | % Repellency 4 hr (German cockroaches) | Overall % Repellency (house flies; 7.5% in isopropyl alcohol) [%] | also measured
CCCCCCCC1CC(=O)C=C(C)C1 (stereo not shown) [3-Methyl-5-heptyl-2-cyclohexenone, 3-methyl-5-heptyl-2-cyclohexenone] |  |  |  |  | Mortality @ 24 hours (Cockroaches; 2.5% in acetone): 10%
CCCCCC1CC(=O)C=C(C)C1 (stereo not shown) [3-Methyl-5-pentyl-2-cyclohexenone, 3-methyl-5-pentyl-2-cyclohexenone] |  |  |  |  | Mortality @ 24 hours (Cockroaches; 2.5% in acetone): 96%
CC1CCC(C(C)(C)O)C(O)C1 (stereo not shown) [PMD, p-Menthane-3,8-diol, reference compound] | 6.5 | 80 |  |  | 100% bite protection for (stable flies; 15% in isopropyl alcohol on forearm): 4.25 h
CCCCCC1C(=O)CCC1CC(=O)OCCC (stereo not shown) [Propyl dihydrojasmonate, propyl dihydrojasmonate] | 4 | 80 | 87.5% | 23 | Overall % Repellency (house flies; 5% in isopropyl alcohol): 52%; Mean % repelled [2]: 96%; % Repellency (Black Widow spiders): 62.5%; Mean % repelled (Brown Dog Ticks): 100%; % Repellency at 24 hours ([1]; 5% in isopropyl alcohol): 100%
CCCCCCCCCCCCCC1CCC(=O)O1 (stereo not shown) [gamma-Heptadecalactone] |  |  | 100% | 39 | Mortality @ 24 hours (Cockroaches; neat): 22%
CCCCCCCCCC1(C)CCC(=O)O1 (stereo not shown) [gamma-Methyl tridecalactone, gamma methyl tridecalactone] | 1.75 | 80 |  |  | 
CCCCCCCCCCC1CCC(=O)O1 (stereo not shown) [gamma-Tetradecalactone, gamma-tetradecalactone] |  | 82 | 82.4% and 75% | 80 | Mortality @ 24 hours (Cockroaches; neat): 46%; Mean % repelled (Brown Dog Ticks): 92%; % Repellency at 24 hours ([1]; 5% in isopropyl alcohol): 91%
